What was measured:
Type in all cases: cell-based
hMC4R wt = target: T1, hMC4R wt (Homo sapiens, UniProt P32245); experiment: BRET pharmacological chaperone rescue / sequestration assay (rGFP-CAAX), hMC4R wt-RlucII; conditions: 10 μM, 16 h
T1 construct: expressed in transfected cells; host or cells: HEK293
Description: (§1) BRET assay for evaluation of PC rescue of cell surface expression and functionality (sequestration assay). In FIGS. 12A to 18E, Hek293 cells were transiently transfected using PEI as described in this section. The DNA transfected per well of a 96-well plate is as follow: in FIGS. 12A and 12B, with 2.4 ng of hMC4R-RlucII encoding construct and an increasing quantity of rGFP-CAAX (Kras) up to 9.6 ng for FIGS. 12A and for 12B, rGFP-PB up to 9.6 ng; in FIGS. 13A to 13C with 0.6, 1.2 or 2.4 ng of hMC4R-RlucII and 4.8 ng of rGFP-CAAX (Kras); in FIG. 13D with 2.4 ng of polycistronic rGFP-CAAX(Kras)/MC4R-RlucII construct; in FIG. 13E with 1.2 ng of hV2R-RlucII and 4.8 ng of rGFP-CAAX (Kras); in FIGS. 14A to 16B with 2.4 ng of hMC4R-RlucII and 7.2 ng of rGFP-CAAX (Kras); Hek293 cells stably expressing rGFP-CAAX(Kras) were transfected with 0.6, 1.2 or 2.4 ng of hMC4R-RlucII; in FIG. 17A or 0.6, 1.2 or 2.4 ng of hV2R_Y128S-RlucII; in FIG. 17B; in FIGS. 18A and 18B with 0.6, 1.2 or 2.4 ng of hERG-RlucII and 4.8 ng of rGFP-CAAX (Kras); and in FIGS. 18C-18E with 0.6 ng of hERG-RlucII and 7.2 ng of rGFP-CAAX (Kras). […] For the BRET assay, cells were washed once with PBS and left in Tyrode's buffer. […] BRET values were determined by calculating the ratio of the light emitted by the acceptor over the light emitted by the RlucII.

hMC4R (R165Q) = target: T2, hMC4R (R165Q) (Homo sapiens, UniProt P32245, R165Q); experiment: BRET pharmacological chaperone rescue / sequestration assay (rGFP-CAAX), hMC4R (R165Q)-RlucII; conditions: 10 μM, 16 h
T2 construct: expressed in transfected cells; host or cells: HEK293
T2 sequence (P32245 whole entry R165Q): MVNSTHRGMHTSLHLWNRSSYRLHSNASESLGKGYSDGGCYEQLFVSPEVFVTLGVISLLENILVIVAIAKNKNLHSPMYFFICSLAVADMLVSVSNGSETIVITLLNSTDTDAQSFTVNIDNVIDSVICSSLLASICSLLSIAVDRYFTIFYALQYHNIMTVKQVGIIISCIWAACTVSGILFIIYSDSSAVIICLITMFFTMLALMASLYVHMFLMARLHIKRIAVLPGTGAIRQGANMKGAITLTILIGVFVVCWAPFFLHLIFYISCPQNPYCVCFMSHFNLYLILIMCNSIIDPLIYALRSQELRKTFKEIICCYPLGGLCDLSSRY
Description: as §1

hMC4R (P299H) = target: T3, hMC4R (P299H) (Homo sapiens, UniProt P32245, P299H); experiment: BRET pharmacological chaperone rescue assay (rGFP-CAAX), hMC4R (P299H)-RlucII; conditions: 10 μM, 16 h
T3 construct: expressed in transfected cells; host or cells: HEK293
T3 sequence (P32245 whole entry P299H): as the sequence (P32245 whole entry R165Q) above, with Q165R, P299H counted along it
Description: as §1

[1] = target: T4, Prostaglandin F receptor (FP) (Homo sapiens, UniProt P43088); experiment: Unimolecular DAG sensor BRET, FP activation; conditions: FP-transfected HEK293SL, 1 min stimulation, read-out: EC50, DAG produced at the plasma membrane
T4 construct: expressed in transfected cells; host or cells: HEK293SL
T4 sequence (P43088 whole entry): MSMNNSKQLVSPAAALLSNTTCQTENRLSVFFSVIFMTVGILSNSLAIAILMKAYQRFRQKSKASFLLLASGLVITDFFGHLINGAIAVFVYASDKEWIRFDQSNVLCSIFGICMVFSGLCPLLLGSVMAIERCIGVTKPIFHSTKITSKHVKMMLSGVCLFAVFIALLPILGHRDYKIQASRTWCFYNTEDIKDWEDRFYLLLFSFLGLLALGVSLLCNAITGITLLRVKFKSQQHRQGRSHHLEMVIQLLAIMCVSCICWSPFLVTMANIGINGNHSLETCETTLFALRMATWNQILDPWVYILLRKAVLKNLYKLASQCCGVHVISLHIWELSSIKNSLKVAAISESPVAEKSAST
Description: (§2) Unimolecular DAG sensor. For FIGS. 22B and C, HEK293SL cells stably expressing hAt1AR (˜50 fmol/mg) were cultured in DMEM supplemented with 10% FBS and 20 μg/ml gentamycin and seeded at a density of 75,000 cells/100 mm dishes and were transiently transfected the next day with 150 ng of construct encoding for the DAG unimolecular sensor, using calcium phosphate method as described previously. 48 h post-transfection, cells were washed and Coel-400a was added to a final concentration of 5 μM and incubated 3 min. […] Data are mean±SD of triplicates of a representative experiment. […] Data are mean±S.E. of six independent experiments. For FIGS. 22D and E, Hek293SL cells were transfected with FuGENE HD, according to Roche's protocol with a ratio of 2:1 fugene:DNA. 10 ng of construct encoding the unimolecular sensor and 400 ng for the receptor (FIGS. 22D, FP and in 2E, GPR14) complemented to 1 ug with ssDNA, were transfected per well of a 6 well plate. 48 h post-transfection, cells were washed, incubated in Tyrode's buffer for 1 h. […] For FIG. 22F, cells were transfected as in FIG. 22D but with just the unimolecular DAG sensor encoding construct. 48 h post-transfection, cells were washed, incubated in Tyrode's buffer for 1 h. […] Cells were then stimulated with 5 μM m-3m3FBS or just vehicle for the indicated time. […] 48 h post-transfection, cells were washed, incubated in Tyrode's buffer for 1 h.

[2] = test system: PLC (β2, β3, γ1, γ2, δ1 isoforms); experiment: Unimolecular DAG sensor BRET, direct PLC activation; conditions: 5 uM
Description: as §2

T1 sequence (P32245 whole entry): as the sequence (P32245 whole entry R165Q) above, with Q165R counted along it

CCC(=O)N[C@H](Cc1ccc(Cl)cc1Cl)C(=O)N1CCN(c2ccccc2CNC(C)COC)CC1 (stereo partly drawn) [DCPMP, N-((2R)-3(2,4-dichloroPhenyl)-1-(4-(2-((1-methoxypropan-2-ylamino)methyl)phenyl)piperazin-1-yl)-1-oxopropan-2-yl)propionamide]
PC-mediated rescue of cell surface expression (hMC4R wt): increase in BRET signal | PC-mediated rescue of cell surface expression (hMC4R (R165Q)): increase in BRET signal | PC-mediated rescue of cell surface expression (hMC4R (P299H)): not PC-rescued

CCCCC[C@H](O)/C=C/[C@H]1[C@H](O)CC(=O)[C@@H]1C/C=C\CCCC(=O)O [PGE2, Prostaglandin E2]
EC50 [1]: 90 nM

Cc1cc(C)c(S(=O)(=O)Nc2cccc(C(F)(F)F)c2)c(C)c1 [m-3m3FBS, N-(3-Trifluoromethylphenyl)-2,4,6-trimethylbenzenesulfonamide]
BRET response of DAG sensor [2]: increase in BRET

From patent publication US10584159B2, “Renilla based biosensors for monitoring biomolecule localization and trafficking in cells” (The Royal Institution for the Advancement of …, priority 2014, dated 2020)
